1 compound from patent US12458630B2, “Combination therapy for cancer” (The Regents of the University of California, priority 2020, dated 2025) can be followed below.

The test system of this test is Kras^G12D;Ikkα^ΔPEC mice. Briefly: Autochthonous PDAC model. The class given is in vivo, mouse. The protocol: To evaluate the effects of MP on tumor growth in the autochthonous model, Kras^G12D;Ikkα^Δpan mice, at 4 weeks of age, were treated with vehicle or 10 mg/kg EIPA (Sigma) by intraperitoneal injection every other day for 1 month. After that, surgically removed pancreata were weighed and used for further analysis. To evaluate the effects of MP on heterotopic xenografts, female homozygous BALB/c Nu/Nu nude mice were injected subcutaneously (s.c.) in both flanks at 7 weeks of age with 10^6 parental and IKKα KO MIA PaCa-2 cells mixed at a 1:1 dilution with BD Matrigel (BD Biosciences) in a total volume of 100 μl. Mice were treated with EIPA (7.5 mg/kg) for 15 days when tumors attained an average volume of 50-100 mm^3. As a control, animals treated with vehicle (DMSO in PBS) were used. Volumes (1/2×(width^2×length)) of s.c. tumors were calculated on the basis of measurements using digital calipers after 15 days of treatment. To evaluate the combination effects of autophagy and MP inhibition on tumor growth, C57BL/6 mice were injected s.c. at 7 weeks of age with 10^7 KC6141 cells in a total volume of 100 μl. Mice were treated with vehicle, EIPA (7.5 mg/kg), MRT68921 (10 mg/kg, MCE), or EIPA and MRT68921 for 21 days when tumors attained an average volume of 100 mm^3. Tumor volumes were calculated as above.
In some embodiments, to evaluate the effects of MP on tumor growth or survival in the autochthonous model, Kras^G12D;Ikkα^ΔPEC mice, at 4 weeks of age, were treated with vehicle or 10 mg/kg EIPA (Sigma) by i.p. injection every other day for 1 month. After that, surgically removed pancreata were weighed and used for further analysis and other mice were continued to maintain for survival. To evaluate the effects of MP on heterotopic xenografts, female homozygous BALB/c Nu/Nu nude mice were injected subcutaneously (s.c.) in both flanks at 7 weeks of age with 10^6 parental and IKKα^Δ MIA PaCa-2 cells or 1334 and 1444 cells mixed at a 1:1 dilution with BD Matrigel (BD Biosciences) in a total volume of 100 μl. Mice were treated with vehicle (DMSO in PBS), EIPA (7.5 mg/kg), MRT68921 (10 mg/kg) or MRT68921 and EIPA for 15 days when tumors attained an average volume of 50-100 mm^3. Volumes (1/2×(width^2×length)) of s.c. tumors were calculated on the basis of measurements using digital calipers after 15 days of treatment. To evaluate the combination effects of autophagy and MP inhibition on tumor growth, C57BL/6 mice were injected s.c. at 7 weeks of age with 10^6 parental, Ikkα KD, Nhe1 KD or Ikkα+Nhe1 DKD KC6141 cells in a total volume of 100 μl. Mice were treated with or without vehicle, EIPA (7.5 mg/kg), MRT68921 (10 mg/kg), or EIPA and MRT68921 for 21 days when tumors attained an average volume of 50-100 mm^3. Tumor volumes were calculated as above.
Cell imaging. Immunostaining was performed as described^44. Cells were cultured on coverslips and fixed in 4% PFA for 10 min at room temperature. After washing twice in PBS, cells were incubated in PBS containing 10% FBS to block nonspecific sites of antibody adsorption. The cells were then incubated with the appropriate primary antibodies (diluted 1:100) and secondary antibodies (diluted 1:500) in PBS containing 10% FBS with or without 0.1% saponin. For cell macropinosome visualization, 24 hrs after seeding, the cells were serum starved for 18 hrs. Macropinosomes were marked using a high-molecular-mass (70 KD) TMR-Dextran (Invitrogen)-uptake assay, wherein TMR-DEX was added to serum-free medium at a final concentration of 1 mg/ml for 30 min at 37° C. At the end of the incubation period, the cells were rinsed five times in cold PBS and immediately fixed in 4% PFA. For tissue macropinosome visualization^45, fresh pancreata were cut into pieces with an approximate 5-mm cuboidal shape. A tissue section was placed in a 24-well plate and injected 150 μL of 10 mg/ml TMR-DEX solution directly into the tissue piece. Another 250 μL of diluted TMR-DEX solution were added to the well to immerse the tissue section. […]

The mark [1] stands for this setting: 10 mg/kg EIPA for 1 month vs vehicle.

Each structure is given as a SMILES string. Entries after “also recorded” stand apart in the source; their conditions may differ.

With `CCN(c1nc(N)c(C(=O)N=C(N)N)nc1Cl)C(C)C` [EIPA, 5-(N-ethyl-N-isopropyl) amiloride], the “residual cancer tissue (histological analysis)” value (10 mg/kg EIPA for 1 month) is reported as “very little residual cancer tissue; also recorded: little residual cancer tissue”. In addition, under setting [1], the “IHC: acinar cell loss (amylase up, CK19 and SOX9 down)” value was “prevented acinar cell loss”; the “MP in TMR-DEX injected pancreata” value is on record as “decreased MP”; the “histology (H&E): ADM, advanced PanIN formation, normal parenchyma” value was “inhibited acinar-to-ductal metaplasia (ADM) and advanced pancreatic intraepithelial neoplasia (PanIN) formation, and preserved the normal pancreatic parenchyma”. In addition, the “pancreatic weight (a measure of tumor growth)” value (10 mg/kg EIPA i.p. every other day for 1 month, from 1 month of age, vs vehicle) was “markedly reduced; also recorded: significantly reduced”. In addition, under “10 mg/kg EIPA vs vehicle, n=12”, the “survival (Kaplan-Meier)” value was “substantially extended; also recorded: enhanced the percent survival rate”.
